Assay results published in US10350262B2, “MCJ agonists and uses therefor” (priority 2015, dated 2019).
“Also recorded” adds a separate entry of the source. No end group written: not given here.

Key:
[1] = system: MCF7/ADR cells; test: Viable cell count of MCF7/ADR cells (Trypan blue); type: cell-based, human; conditions: doxorubicin 3 μM, 2 days
Procedure: (§1) FIG. 15A provides results of Western blot analysis for MCJ in MCF7 cells and MCF7/ADR (ADR) cells. Actin was used as loading control. […] Viable cells were counted 2 days later.
(§2) FIG. 16A-B provides graphs showing response to MCJ agonists. […] Cells were harvested 2 days later and viable cells were counted. […] Mice were harvested at day 4. The size of a tumor over time was determined by caliper measurements, and is represented as a percentage relative to the initial size prior to the treatment. p<0.05 as determined by a paired t-test.
(§3) Cell Culture. MCF7 and MCF7/ADR cells were a kind gift from Dr. Ken Cowan (National Cancer Institute, Bethesda, Md.). MCF7/siMCJ cells were generated by stable transfection with a plasmid expressing a shRNA for MCJ (siMCJ) as described in Hatle, K. M., et al., Mol Cell Biol 27, 2952-2966 (2007). All cells were maintained at 37 C, 5% CO2 in RPMI-1640 (Life technologies, Inc., Gaithersburg, Md.) containing 5% FBS.
(§4) Cell count. Cells were trypsinized, washed, and resuspended in medium. Number of viable cells was measured by counting using Trypan blue dye to exclude dead cells (visualized as blue).
(§5) Doxorubicin and peptides treatment in vitro. Doxorubicin (Sigma-Aldrich) was used at 3 μM final concentration. The three different peptides described in the examples (SEQ ID NO: 2, 18 or 6) were resuspended at 10 mM stock concentration in PBS. The peptides were used a different concentration as indicated for each example (1, 10, or 50 μM). Cells were plated the day prior the treatment (18-20 h prior to the treatment). For treatments with peptides only, peptides were added to the plates at the indicated concentrations, and after 2 or 3 days (as indicated for each example) cells were trypsinized, resuspended, and counted. For the treatment with doxorubicin and peptides, cells were pretreated with the corresponding peptide for 4 h prior to adding doxorubicin.
MCF7/ADR cells were incubated (using standard procedures) for three days in media alone or in media plus three different MCJ based polypeptides each at a concentration of 50 μM in media. The cells of set one were incubated in media and served as a control set. The cells of set two were incubated in media that included a 50 μM concentration of a MCJ polypeptide without a targeting agent polypeptide. The amino acid sequence of the N-MCJ polypeptide without a targeting agent polypeptide was […] (SEQ ID NO:2). The cells of set three were incubated in media that included a 50 μM concentration of a TAT-N-MCJ polypeptide. The amino acid sequence of the TAT-N-MCJ polypeptide was: […] (SEQ ID NO:18). […]

[2] = system: mammary tumors in MMTV mice; test: Doxorubicin treatment in vivo, mammary tumor size in MMTV mice; design: species or system mouse; conditions: doxorubicin 2 mg/Kg i.p. every other day for two weeks, n=4
From the text: (§6) Mice. […] MCJ KO mice were crossed with the previously described MMTV-PyMT mice [see: Guy, C. T., et. al., Mol Cell Biol 12, 954-961 (1992)] to generate MCJ KO MMTV mice. Wildtype MMTV mice and MCJ KO MMTV mice were used for the experiments. All mice were housed under sterile conditions at the animal care facility at the University of Vermont. The procedures were approved by the University of Vermont Institutional Animal Care and Use Committee.
Doxorubicin and peptides treatment in vivo. MTV mice and MCJ KO MMTV mice were used to assay response to doxorubicin and MCJ peptides. The treatments were initiated around 2.5-3 months of age when the mammary tumor these mice develop reach 300 mm^3. Doxorubicin was administered intreperitoneal in PBS (100 μl per mouse) at a dose of 2 mg/Kg. TAT-N-MCJ-mts peptide (SEQ ID NO: 6) was administered at the time of doxorubicin by a subcutaneous injection in PBS (100 μl per mouse) at a dose of 10 mg/Kg. Administrations of doxorubicin and peptide were performed every other day for the indicated period of time. Perpendicular tumor diameters were measured using a vernier scale caliper and tumor volume estimated using the formula for ellipsoid (width×high×length)/2. […]
The size of a tumor over time was determined by caliper measurements, and is represented as a percentage relative to the initial size prior to the treatment. p<0.05 as determined by a paired t-test.

[3] = system: MCF7 cells; test: Viable cell count of MCF7 cells (Trypan blue); type: cell-based, human; conditions: doxorubicin 3 μM
From the text: as §1, §3, §4, §5
MCF7 cells and MCF7/ADR cells were incubated (using standard procedures) for two days in media alone or in media that included different concentrations of the TAT-N-MCS-MTS polypeptide having the amino acid sequence set forth as: […]

[4] = system: mammary tumors in MCJ KO MMTV mice; test: Doxorubicin and peptide treatment in vivo, mammary tumor size in MCJ KO MMTV mice; design: species or system mouse
Procedure: as §2, §6
Doxorubicin and peptides treatment in vivo. MTV mice and MCJ KO MMTV mice were used to assay response to doxorubicin and MCJ peptides. The treatments were initiated around 2.5-3 months of age when the mammary tumor these mice develop reach 300 mm^3. […] Perpendicular tumor diameters were measured using a vernier scale caliper and tumor volume estimated using the formula for ellipsoid (width×high×length)/2. […]
The size of a tumor over time was determined by caliper measurements, and is represented as a percentage relative to the initial size prior to the treatment. p<0.05 as determined by a paired t-test. […]

[5] = mouse
Procedure: MCF7/ADR cells were treated with doxorubicin, TAT-N-MCJ-mts peptide alone or in combination. […] Thus, at lower doses, MCJ agonists could overcome chemo-resistance of breast cancer cells in vitro. A study was also performed that tested the effect of the TAT-N-MCJ-mts peptide in combination with chemotherapy in vivo using the MMTV mammary tumor mouse model. […] Therefore MCJ KO MMTV mice were treated with doxorubicin alone or doxorubicin and the TAT-N-MCJ-mts peptide and followed tumor size.

Compound	expansion of cells (viable cells) [1]	tumor size over time [2]	effect on viable cells ([3]; 2 days)	cell death ([3]; vs media alone)	tumor size over time ([4]; doxorubicin 2 mg/Kg i.p. every other day for two weeks, n=4)	tumor size (percentage relative to initial size) ([4]; doxorubicin alone 2 mg/Kg i.p. at day 0, 2 and 3, harvested day 4, n=3)	toxicity in vivo (abnormality in treated mice) [5]
COc1cccc2c1C(=O)c1c(O)c3c(c(O)c1C2=O)C[C@@](O)(C(=O)CO)C[C@@H]3O[C@H]1C[C@H](N)[C@H](O)[C@H](C)O1 [doxorubicin]	no effect on the expansion of MCF7/ADR cells	The size of the tumors in MMTV-Py mice was reduced; also recorded: tumor size in MMTV mice decreased over time	sensitive to doxorubicin	significant level of cell death	continued growing or did not shrink; also recorded: less reduction in tumor size; also recorded: did not decrease, and continued to increase over time	continued growing	
YGKKRRQRRGMAARGVIAPVGESLRYAEYLGTRTWVPKGLKSP [TAT-N-MCJ-MTS]							no obvious abnormality was observed
